System: FGF19
Test: Expression of FGF19 mRNA in HT29 cells by RT-qPCR
Type: cell-based, human
Conditions: 6 h; for increase of expression of the FGF19 gene compared to control (carrier=DMSO): Example 5, HT29 cells; for increase of expression of the FGF19 gene compared with control (carrier=DMSO): Example 6, HT29 cells
Description: For cell cultures, the HT29 (ECACC 91072201), HT29-MTX and Caco-2 lines derived from a human colorectal adenocarcinoma are used, conventionally used as cell lines representative of human enterocytes. The cells are systematically cultured in Dulbecco's Modified Eagle Medium (DMEM): 4.5 g/L of glucose supplemented with 1% of sodium pyruvate, 1% of penicillin-streptomycin and 10% of decomposed fetal-bovine serum (FBS) (Eurobio, Les Ulis, France). For the 12-well and 96-well plate experiments, the HT29 cells were seeded with a density of 7.5×10^4 cells/cm^2 with a medium changed every 2 days and the cells were exposed to different experimental conditions 2 days after confluence with a depleted complete medium in FBS. For the 12-well plates (Costar®, Cambridge, MA), Caco-2 and HT29-MTX cells were seeded in a ratio of 1:1 with a density of 2.5×10^4 cells/cm^2. The cells were cultured for 14 days in a complete medium to allow differentiation. The medium was changed in the two compartments every two days until exposure to the complete medium was depleted in the FBS. The integrity of the cellular monolayer was evaluated by measuring the transepithelial electrical resistance (TEER) using a Millicell-ERS (Millipore Corp., Billerica, MA). The cell culture was sourced from Dutscher (Issy-les-Moulineaux, France), unless specified otherwise.
The various conditions of the carrier as PD were dissolved in PBS and the agonists were dissolved in DMSO. After exposure, the cell supernatants were stored at −80° C. for the measurements of the secretion of FGF19 proteins, and the cell monolayers were maintained at −80° C. until total extraction of the RNA.
The effect of this exposure is measured by quantifying the messenger RNA of the FGF19 using the following protocol: the expression of the target genes was evaluated by quantifying their mRNA level in the cells by RT-qPCR. The total RNA was isolated using the TRI-Reagent solution (Sigma Aldrich). First-strand complementary DNA was synthesized from 1 μg of total RNA using the TAKARA Prime ScriptMC RT reagent kit (TAKARA Bio, Saint-Germain-en-Laye, France). The qPCR tests were carried out using the SYBR® Premix Ex-Taq™ kit (TAKARA Bio) on Rotor-Gene™ 6000 (Corbet Research, Mortlake, Australia). The mRNA levels of the human TATA binding protein (TBP) were used to normalize the data.
[FIG. 1] summarizes the results obtained. The HT29 cells were exposed to the various PDs alone or in combination with an FXR agonist to determine their potential capacity to increase the expression of the FGF19 gene. […]
The capacity of the RQ3 and RQ7 digestates to increase the level of expression of the FGF19 mRNA and also the production and secretion of proteins was then evaluated. […]

CC(C)c1onc(-c2c(Cl)cccc2Cl)c1COc1ccc(C=Cc2cccc(C(=O)O)c2)c(Cl)c1 [GW4064, 3-(2,6-Dichlorophenyl)-4-(3′-carboxy-2-chlorostilben-4-yl)oxymethyl-5-isopropylisoxazole]
increase of expression of the FGF19 gene compared to control (carrier=DMSO) (GW4064 0.1 μM alone): 2 times | increase of expression of the FGF19 gene compared to control (carrier=DMSO) (GW4064 1 μM alone): 6.2 times | increase of expression of the FGF19 gene compared with control (carrier=DMSO) (GW4064 0.1 μM alone): 2.3 times | increase of expression of the FGF19 gene compared with control (carrier=DMSO) (GW4064 1 μM alone): 6.6 times
